Results as given in patent US7935815B2, “Imidazoyl pyridine compounds and salts thereof” (Eisai R&D Management Co., Ltd., priority 2007, dated 2011).

Tested on: Aβ42 production
Assay: Quantification of Aβ peptide in culture of neurons from rat fetus brain (Aβ ELISA)
Format: cell-based
Conditions: Rattus norvegicus, Neuron, 72 h, rat primary neuronal culture (embryonic day 18 Wistar rat cerebral cortex); cultured three days after addition of compound; Aβx-42 ELISA of the medium; read-out: Aβ42 production reducing effect IC50
Experimental: Quantification of Aβ Peptide in Culture of Neurons from Rat Fetus Brain
(1) Rat Primary Neuronal Culture
Primary neuronal cultures were prepared from the cerebral cortex of embryonic day 18 Wistar rats (Charles River Japan, Yokohama, Japan). Specifically, the embryos were aseptically removed from pregnant rats under ether anesthesia. The brain was isolated from the embryo and immersed in an ice-cold L-15 medium (Invitrogen Corp. Cat #11415-064, Carlsbad, Calif., USA, or SIGMA L1518, for example). The cerebral cortex was collected from the isolated brain under a stereoscopic microscope. The cerebral cortex fragments collected were enzymatically treated in an enzyme solution containing 0.25% trypsin (Invitrogen Corp. Cat #15050-065, Carlsbad, Calif., USA) and 0.01% DNase (Sigma D5025, St. Louis, Mo., USA) at 37° C. for 30 minutes to disperse the cells. Here, the enzymatic reaction was stopped by adding inactivated horse serum to the solution. The enzymatically treated solution was centrifuged at 1,500 rpm for five minutes to remove the supernatant. 5 to 10 ml of a medium was added to the resulting cell mass. Neurobasal medium (Invitrogen Corp. Cat #21103-049, Carlsbad, Calif., USA) supplemented with 2% B27 supplement (Invitrogen Corp. Cat #17504-044, Carlsbad, Calif., USA), 25 μM 2-mercaptoethanol (2-ME, WAKO Cat #139-06861, Osaka, Japan), 0.5 mM L-glutamine (Invitrogen Corp. Cat #25030-081, Carlsbad, Calif., USA), and Antibiotics-Antimycotics (Invitrogen Corp. Cat #15240-062, Carlsbad, Calif., USA) was used as the medium (Neurobasal/B27/2-ME). However, the above Neurobasal medium not supplemented with 2-ME (Neurobasal/B27) was used for the assay. The cells were redispersed by mild pipetting of the cell mass to which the medium was added. The cell dispersion was filtered through a 40-μm nylon mesh (Cell Strainer, Cat #35-2340, Becton Dickinson Labware, Franklin Lakes, N.J., USA) to remove the remaining cell mass, and thus a neuronal cell suspension was obtained. The neuronal cell suspension was diluted with the medium and then plated in a volume of 100 μl/well at an initial cell density of 5×10^5 cells/cm^2 in a 96-well polystyrene culture plate pre-coated with poly-L or D-lysine (Falcon Cat #35-3075, Becton Dickinson Labware, Franklin Lakes, N.J., USA coated with poly-L-lysine using the method shown below, or BIOCOAT™ cell environments Poly-D-lysine cell ware 96-well plate, Cat #35-6461, Becton Dickinson Labware, Franklin Lakes, N.J., USA). Poly-L-lysine coating was carried out as follows. 100 μg/ml of a poly-L-lysine (SIGMA P2636, St. Louis, Mo., USA) solution was aseptically prepared with a 0.15 M borate buffer (pH 8.5). 100 μl/well of the solution was added to the 96-well polystyrene culture plate and incubated at room temperature for one or more hours or at 4° C. overnight or longer. The coated 96-well polystyrene culture plate was washed with sterile water four or more times, and then dried or rinsed with, for example, sterile PBS or medium, and used for cell plating. The plated cells were cultured in the culture plate at 37° C. in 5% CO2-95% air for one day. Then, the total amount of the medium was replaced with a fresh Neurobasal™/B27/2-ME medium, and then the cells were cultured for further three days.
The drug was added to the culture plate on Day 4 of culture as follows. The total amount of the medium was removed from the wells, and 180 μl/well of Neurobasal medium not containing 2-ME and containing 2% B-27 (Neurobasal/B27) was added thereto. A solution of the test compound in dimethyl sulfoxide (hereinafter abbreviated as DMSO) was diluted with Neurobasal/B27 at 10-fold of the final concentration. 20 μl/well of the dilution was added to and sufficiently mixed with the medium. The final DMSO concentration was 1% or less. Only DMSO was added to the control group.
The cells were cultured for three days after addition of the compound, and the total amount of the medium was collected. […]

Structure (SMILES)	IC50 [nM]
COCc1ccccc1C1CCCn2nc(/C=C/c3ccc(-n4cnc(C)c4)c(OC)c3)nc21 (single isomer, unassigned; (-)) [Example 22, (−)-2-{(E)-2-[3-methoxy-4-(4-methyl-1H-imidazol-1-yl)phenyl]vinyl}-8-(2-methoxymethylphenyl)-5,6,7,8-tetrahydro-[1,2,4]triazolo[1,5-a]pyridine]	25
COCc1cc(F)ccc1C1CCCn2nc(/C=C/c3ccc(-n4cnc(C)c4)c(OC)c3)nc21 (single isomer, unassigned; (-)) [Example 24, (−)-8-(4-fluoro-2-methoxymethylphenyl)-2-{(E)-2-[3-methoxy-4-(4-methyl-1H-imidazol-1-yl)phenyl]vinyl}-5,6,7,8-tetrahydro-[1,2,4]triazolo[1,5-a]pyridine]	12
COc1nc(/C=C/c2nc3n(n2)CCCC3c2ccccc2OC(F)(F)F)ccc1-n1cnc(C)c1 (single isomer, unassigned; (-)) [Example 283, (−)-8-(2-trifluoromethoxyphenyl)-2-{(E)-2-[6-methoxy-5-(4-methyl-1H-imidazol-1-yl)pyridin-2-yl]vinyl}-5,6,7,8-tetrahydro-[1,2,4]triazolo[1,5-a]pyridine]	27
COc1nc(/C=C/c2nc3n(n2)CCCC3c2ccc(F)cc2C(F)(F)F)ccc1-n1cnc(C)c1 (single isomer, unassigned; (-)) [Example 286, (−)-8-(2-trifluoromethyl-4-fluorophenyl)-2-{(E)-2-[6-methoxy-5-(4-methyl-1H-imidazol-1-yl)pyridin-2-yl]vinyl}-5,6,7,8-tetrahydro-[1,2,4]triazolo[1,5-a]pyridine]	8
COc1nc(/C=C/c2nc3n(n2)CCCC3c2ccccc2Br)ccc1-n1cnc(C)c1 (single isomer, unassigned; (-)) [Example 290, (−)-8-(2-bromophenyl)-2-{(E)-2-[6-methoxy-5-(4-methyl-1H-imidazol-1-yl)pyridin-2-yl]vinyl}-5,6,7,8-tetrahydro-[1,2,4]triazolo[1,5-a]pyridine]	16
COc1cc(/C=C/c2nc3n(n2)CCCC3c2ccccc2C(F)(F)F)ccc1-n1cnc(C)c1 (single isomer, unassigned; (-)) [Example 311, (−)-2-{(E)-2-[3-methoxy-4-(4-methyl-1H-imidazol-1-yl)phenyl]vinyl}-8-(2-trifluoromethylphenyl)-5,6,7,8-tetrahydro-[1,2,4]triazolo[1,5-a]pyridine]	11
COc1cc(/C=C/c2nc3n(n2)CCC3c2ccccc2C(F)(F)F)ccc1-n1cnc(C)c1 (single isomer, unassigned; (-)) [Example 317, (−)-2-{(E)-2-[3-methoxy-4-(4-methyl-1H-imidazol-1-yl)phenyl]vinyl}-7-(2-trifluoromethylphenyl)-6,7-dihydro-5H-pyrrolo[1,2-b][1,2,4]triazole]	25
COc1nc(/C=C/c2nc3n(n2)CCCC3c2ccccc2C)ccc1-n1cnc(C)c1 (single isomer, unassigned; (-)) [Example 319, (−)-2-{(E)-2-[6-methoxy-5-(4-methyl-1H-imidazol-1-yl)pyridin-2-yl]vinyl}-8-(o-tolyl)-5,6,7,8-tetrahydro[1,2,4]triazolo[1,5-a]pyridine]	15
COc1nc(/C=C/c2nc3n(n2)CCCC3c2cccc(C(F)(F)F)c2)ccc1-n1cnc(C)c1 (single isomer, unassigned; (-)) [Example 321, (−)-2-{(E)-2-[6-methoxy-5-(4-methyl-1H-imidazol-1-yl)pyridin-2-yl]vinyl}-8-(3-trifluoromethylphenyl)-5,6,7,8-tetrahydro[1,2,4]triazolo[1,5-a]pyridine]	23
COc1nc(/C=C/c2nc3n(n2)CCCC3c2ccccc2F)ccc1-n1cnc(C)c1 (single isomer, unassigned; (-)) [Example 327, (−)-8-(2-fluorophenyl)-2-{(E)-2-[6-methoxy-5-(4-methyl-1H-imidazol-1-yl)pyridin-2-yl]vinyl}-5,6,7,8-tetrahydro-[1,2,4]triazolo[1,5-a]pyridine]	20
COc1nc(/C=C/c2nc3n(n2)CCCC3c2cc(F)ccc2C(F)(F)F)ccc1-n1cnc(C)c1 (single isomer, unassigned; (-)) [Example 329, (−)-8-(5-fluoro-2-trifluoromethylphenyl)-2-{(E)-2-[6-methoxy-5-(4-methyl-1H-imidazol-1-yl)pyridin-2-yl]vinyl}-5,6,7,8-tetrahydro-[1,2,4]triazolo[1,5-a]pyridine]	17
COc1nc(/C=C/c2nc3n(n2)CCCC3c2c(F)cccc2C(F)(F)F)ccc1-n1cnc(C)c1 (single isomer, unassigned; (-)) [Example 331, (−)-8-(6-fluoro-2-trifluoromethylphenyl)-2-{(E)-2-[6-methoxy-5-(4-methyl-1H-imidazol-1-yl)pyridin-2-yl]vinyl}-5,6,7,8-tetrahydro-[1,2,4]triazolo[1,5-a]pyridine]	22
COc1nc(/C=C/c2nc3n(n2)CCCC3c2cccc(F)c2C)ccc1-n1cnc(C)c1 (single isomer, unassigned; (-)) [Example 333, (−)-8-(3-fluoro-2-methylphenyl)-2-{(E)-2-[6-methoxy-5-(4-methyl-1H-imidazol-1-yl)pyridin-2-yl]vinyl}-5,6,7,8-tetrahydro-[1,2,4]triazolo[1,5-a]pyridine]	10
COc1nc(/C=C/c2nc3n(n2)CCCC3c2cc(F)cc(F)c2)ccc1-n1cnc(C)c1 (single isomer, unassigned; (-)) [Example 337, (−)-8-(3,5-difluorophenyl)-2-{(E)-2-[6-methoxy-5-(4-methyl-1H-imidazol-1-yl)pyridin-2-yl]vinyl}-5,6,7,8-tetrahydro[1,2,4]triazolo[1,5-a]pyridine]	13
Cc1cn(-c2ccc(/C=C/c3nc4n(n3)CCCC4c3ccccc3C(F)(F)F)nc2OCC(F)F)cn1 (single isomer, unassigned; (-)) [Example 354, (−)-2-{(E)-2-[5-(4-methyl-1H-imidazol-1-yl)-6-(2,2-difluoroethoxy)pyridin-2-yl]vinyl}-8-(2-trifluoromethylphenyl)-5,6,7,8-tetrahydro-[1,2,4]triazolo[1,5-a]pyridine]	37
COc1cc(/C=C/c2nc3n(n2)CCC/C3=C\c2ccccc2)ccc1-n1cnc(C)c1 [Example 12, 2-{(E)-2-[3-methoxy-4-(4-methyl-1H-imidazol-1-yl)phenyl]vinyl}-8-[1-phenylmethy-(E)-lidene]-5,6,7,8-tetrahydro[1,2,4]triazolo[1,5-a]pyridine]	135
COc1cc(/C=C/c2nc3n(n2)C[C@H](C)C[C@@H]3c2ccc(F)cc2)ccc1-n1cnc(C)c1 [Example 97, (6R,8R)-8-(4-fluorophenyl)-2-{(E)-2-[3-methoxy-4-(4-methyl-1H-imidazol-1-yl)phenyl]vinyl}-6-methyl-5,6,7,8-tetrahydro-[1,2,4]triazolo[1,5-a]pyridine]	38
COc1cc(/C=C/c2nc3n(n2)C[C@@H](C)C[C@@H]3c2ccc(F)cc2)ccc1-n1cnc(C)c1 [Example 99, (6S,8R)-8-(4-fluorophenyl)-2-{(E)-2-[3-methoxy-4-(4-methyl-1H-imidazol-1-yl)phenyl]vinyl}-6-methyl-5,6,7,8-tetrahydro-[1,2,4]triazolo[1,5-a]pyridine]	20
